≈ marks a conversion by molar mass, not a printed value.
Assays:
Saccharomyces cerevisiae = test: MIC by serial dilution; format: cell-based
Method: (§1) Antibiotic activity, which is assumed to be based on the inhibition of the RNA polymerase, was tested against several gram-positive and gram-negative bacteria and Saccharomyces cerevisiae, including a Rifampicin resistant Staphylococcus aureus clinical isolate.
(§2) The microorganisms tested were grown on 1% peptone, 0.1% meat extract, 0.1% yeast extract medium containing 1.5% agar at pH 7.0. MIC values were determined by serial dilution. Table 2: Antimicrobial activity of Etnangien methylester in comparison to Etnangien acid 1

Nocardia corallina = test: MIC by serial dilution; format: cell-based; conditions: Gordonia rubripertincta
Method: as §1, §2

Micrococcus luteus = test: MIC by serial dilution; format: cell-based
Method: as §1, §2

[1] = tested on: S. aureus, Rifampicin resistant; test: MIC by serial dilution; format: cell-based; conditions: Staphylococcus aureus
Method: as §1, §2

Bacillus subtilis = test: MIC by serial dilution; format: cell-based
Method: as §1, §2

E. coli = test: MIC by serial dilution; format: cell-based; conditions: Escherichia coli
Method: as §1, §2

Staphylococcus aureus = test: MIC by serial dilution; format: cell-based
Method: as §1, §2

[2] = tested on: Corynebacterium glutamicum (DSM 20300); test: MIC by serial dilution; format: cell-based; conditions: DSM20300
Method: as §1, §2

[3] = biological target: T1, HIV I reverse transcriptase (HIVRT) (Human immunodeficiency virus type 1 group M subtype B, UniProt P04585); test: Nucleic acid polymerase inhibition, in vitro assay; format: biochemical; conditions: result in words
T1 construct: HIV I reverse transcriptase (HIVRT)
Method: (§3) Similar antiviral activity is found for the Etnangien esters according to the invention.
(§4) Measurement results showing the nucleic acid polymerase inhibition by Etnangien 1 are shown in Figure 2 for E. coli RNA polymerase (EcRNAP), E. coli DNA polymerase (EcDNAP), and HIV I reverse transcriptase (HIVRT), and in Figure 3 for Moloney murine leukemia virus reverse transcriptase (MuLVRT). In vitro assays were performed according to Richardson et al. (J. Biol. Chem. 222-232 (1964)) and Houts et al. (J. Virol. 517-522(1979)). Maximum inhibition for E. coli polymerases was found for concentrations of 50 to 60 µg/mL, although E. coli itself was rather resistant.

[4] = biological target: T2, Moloney murine leukemia virus reverse transcriptase (MuLVRT) (Moloney murine leukemia virus, UniProt P03355); test: Nucleic acid polymerase inhibition, in vitro assay; format: biochemical
T2 construct: Moloney murine leukemia virus reverse transcriptase (MuLVRT)
Method: as §3, §4

Compound | MIC (Saccharomyces cerevisiae) | MIC (Nocardia corallina) | MIC (Micrococcus luteus) | MIC [1] | MIC (Bacillus subtilis) | MIC (E. coli) | MIC (Staphylococcus aureus) | MIC [2] | inhibition of viral reverse transcriptase [3] | concentration of maximum inhibition ([4]; MuLVRT, Figure 3) | inhibition of reverse transcriptase ([4]; at concentrations of 5 µg/mL)
COC(=O)CC/C(C)=C/C(O)C/C=C/C=C/C=C/C=C/C=C/C(C)=C/C(O)C(C)C1CC(O)CCCC(OC)C/C=C\C=C\CC(C)C(O)C(C)C(O)C(C)C(O)CC(=O)O1 (stereo not drawn) [Etnangien methylester] | > 40 µg/mL | 0.12 µg/mL (≈ 0.14 µM) | 0.39 µg/mL (≈ 0.456 µM) | 3.1 µg/mL (≈ 3.63 µM) | 20 µg/mL (≈ 23.4 µM) | > 80 µg/mL | 2.5 µg/mL (≈ 2.92 µM) | 0.24 µg/mL (≈ 0.281 µM) |  |  | 
COC1C/C=C\C=C\CC(C)C(O)C(C)C(O)C(C)C(O)CC(=O)OC(C(C)C(O)/C=C(C)/C=C/C=C/C=C/C=C/C=C/CC(O)/C=C(\C)CCC(=O)O)CC(O)CCC1 (stereo not drawn) [Etnangien] |  |  |  |  |  | > 80 µg/mL |  |  |  |  | 
Etnangien |  |  |  |  |  |  |  |  | potent inhibitor | 5 µg/mL | inhibited completely

Reference: patent EP2014655B1, “Etnangien derivatives and their use as antibiotics” (Helmholtz-Zentrum für Infektionsforschung, priority 2007, dated 2009)
